The source made the active and inactive calls. The rule behind the calls is not given here.
Legend:
[1] = target: T1, Thyrotropin-releasing hormone receptor 2 (Rattus norvegicus) (UniProt A6IZR3); test: Displacement of [3H]3-methylhistidyl-TRH from rat recombinant TRH2 receptor expressed in […] cells up to 1 mM; assay type: cell-based
T1 sequence (whole entry): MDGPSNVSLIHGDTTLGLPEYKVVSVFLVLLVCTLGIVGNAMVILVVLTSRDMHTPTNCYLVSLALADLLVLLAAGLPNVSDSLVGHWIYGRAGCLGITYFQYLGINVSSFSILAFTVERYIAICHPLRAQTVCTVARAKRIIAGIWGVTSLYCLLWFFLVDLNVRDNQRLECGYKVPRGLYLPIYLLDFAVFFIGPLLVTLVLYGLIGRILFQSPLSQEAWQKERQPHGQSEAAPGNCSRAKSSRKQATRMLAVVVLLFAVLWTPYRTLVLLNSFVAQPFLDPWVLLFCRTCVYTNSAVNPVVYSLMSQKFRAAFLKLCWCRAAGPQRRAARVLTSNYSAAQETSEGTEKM

[2] = target: T2, Thyrotropin-releasing hormone receptor 2 (Rattus norvegicus, UniProt A6IZR3); test: Displacement of [3H]3-methylhistidyl-TRH from rat recombinant TRH2 receptor expressed in […] cells; assay type: cell-based
T2 sequence (A6IZR3 whole entry): T1 sequence (whole entry)

| Activity [1] | IC50 [2] | SMILES |
| --- | --- | --- |
| inactive | – | Cc1c(O)cc(O)c(C(=O)CCc2ccccc2)c1O |
| – | 23 µM | Cc1c(O)c(C(=O)CCc2ccccc2)c(O)c(C(CCc2ccccc2)C2=C(O)C(C)(C)C(=O)C(C)(C)C2=O)c1O (centres undefined) [CORYMBONE A] |
| – | 19 µM | Cc1c(O)c(C(=O)CCc2ccccc2)c(O)c(C(CC(C)C)C2=C(O)C(C)(C)C(=O)C(C)(C)C2=O)c1O (centres undefined) [CORYMBONE B] |
| – | 23 µM | NC(=O)[C@@H]1CCCN1C(=O)[C@H](Cc1cnc[nH]1)NC(=O)[C@@H]1CCC(=O)N1 [PROTIRELIN] |

Reference: ChEMBL document CHEMBL1150271, “Corymbones A and B, phloroglucinols with thyrotropin releasing hormone receptor 2 binding affinity from the flowers of Corymbia peltata” (J Nat Prod, 2008)
